Reference: PubChem BioAssay AID1963829 (Molecular Pharmacology Branch, DTP, NCI, 2024)

System: 935938-334-R-J1-PDC complex spheroid viability
Assay: Anticancer human tumor 935938-334-R-J1-PDC patient-derived small intestine adenocarcinoma cell line growth inhibition [POLQ]
Conditions: for IC50: curve of first compound; for viability, T/C: stronger effect = lower value
Method in brief: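 Growth inhibition in 3D: complex spheroids (tumor PDC, HUVEC, MSC) treated with POLQ inhibitor combinations; where Cmax unknown, highest tested concentration 10 microM, except SN-38 at 1 microM.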

[1] = second compound 0.0316 µM, first compound 0.0316 µM
[2] = second compound 0.0316 µM, first compound 0.1 µM
[3] = second compound 0.0316 µM, first compound 0.316 µM
[4] = second compound 0.0316 µM, first compound 1 µM
[5] = second compound 0.0316 µM, first compound 3.16 µM
[6] = second compound 0.0316 µM, first compound 10 µM
[7] = second compound 0.1 µM, first compound 0.0316 µM
[8] = second compound 0.1 µM, first compound 0.1 µM
[9] = second compound 0.1 µM, first compound 0.316 µM
[10] = second compound 0.1 µM, first compound 1 µM
[11] = second compound 0.1 µM, first compound 3.16 µM
[12] = second compound 0.1 µM, first compound 10 µM
[13] = second compound 0.316 µM, first compound 0.0316 µM
[14] = second compound 0.316 µM, first compound 0.1 µM
[15] = second compound 0.316 µM, first compound 0.316 µM
[16] = second compound 0.316 µM, first compound 1 µM
[17] = second compound 0.316 µM, first compound 3.16 µM
[18] = second compound 0.316 µM, first compound 10 µM
[19] = second compound 1 µM, first compound 0.0316 µM
[20] = second compound 1 µM, first compound 0.1 µM
[21] = second compound 1 µM, first compound 0.316 µM
[22] = second compound 1 µM, first compound 1 µM
[23] = second compound 1 µM, first compound 3.16 µM
[24] = second compound 1 µM, first compound 10 µM
[25] = second compound 3.16 µM, first compound 0.0316 µM
[26] = second compound 3.16 µM, first compound 0.1 µM
[27] = second compound 3.16 µM, first compound 0.316 µM
[28] = second compound 3.16 µM, first compound 1 µM
[29] = second compound 3.16 µM, first compound 3.16 µM
[30] = second compound 3.16 µM, first compound 10 µM
[31] = second compound 10 µM, first compound 0.0316 µM
[32] = second compound 10 µM, first compound 0.1 µM
[33] = second compound 10 µM, first compound 0.316 µM
[34] = second compound 10 µM, first compound 1 µM
[35] = second compound 10 µM, first compound 3.16 µM
[36] = second compound 10 µM, first compound 10 µM
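Also: spheroids exposed to drugs for seven days before viability read.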
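For viability, T/C in this document: 100% = DMSO vehicle control wells.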

O=c1[nH]cc(F)c(=O)[nH]1 + Cc1cccc(N(C)C(=O)C2C(O)CCN2c2nc(C)cc(C(F)(F)F)c2C#N)c1
IC50 (second compound 0.0316 µM): > 10 µM | IC50 (second compound 0.1 µM): > 10 µM | IC50 (second compound 0.316 µM): > 10 µM | IC50 (second compound 1 µM): > 10 µM | IC50 (second compound 3.16 µM): > 10 µM | IC50 (second compound 10 µM): > 10 µM | viability, T/C [1]: 131% | viability, T/C [2]: 113% | viability, T/C [3]: 94.2% | viability, T/C [4]: 84% | viability, T/C [5]: 74.2% | viability, T/C [6]: 56.1% | viability, T/C [7]: 106% | viability, T/C [8]: 127% | viability, T/C [9]: 93% | viability, T/C [10]: 76.7% | viability, T/C [11]: 67.4% | viability, T/C [12]: 67.7% | viability, T/C [13]: 84% | viability, T/C [14]: 122% | viability, T/C [15]: 124% | viability, T/C [16]: 82.4% | viability, T/C [17]: 78% | viability, T/C [18]: 68.2% | viability, T/C [19]: 110% | viability, T/C [20]: 94.9% | viability, T/C [21]: 122% | viability, T/C [22]: 91.7% | viability, T/C [23]: 73.7% | viability, T/C [24]: 64% | viability, T/C [25]: 120% | viability, T/C [26]: 126% | viability, T/C [27]: 97.5% | viability, T/C [28]: 78.3% | viability, T/C [29]: 65.3% | viability, T/C [30]: 67.2% | viability, T/C [31]: 99.1% | viability, T/C [32]: 142% | viability, T/C [33]: 87.1% | viability, T/C [34]: 95% | viability, T/C [35]: 68% | viability, T/C [36]: 65.9%

Nc1ccn(C2OC(CO)C(O)C2(F)F)c(=O)n1 (centres undefined) + Nc1ccc(C#CCN(C(=O)Cc2ncc(C(F)(F)F)cc2C(F)(F)F)c2ccc(F)cc2)nn1
IC50 (second compound 0.0316 µM): < 0.0316 µM | IC50 (second compound 0.1 µM): < 0.0316 µM | IC50 (second compound 0.316 µM): < 0.0316 µM | IC50 (second compound 1 µM): < 0.0316 µM | IC50 (second compound 3.16 µM): < 0.0316 µM | IC50 (second compound 10 µM): < 0.0316 µM | viability, T/C [1]: 35.4% | viability, T/C [2]: 27.6% | viability, T/C [3]: 17.3% | viability, T/C [4]: 17.3% | viability, T/C [5]: 18.2% | viability, T/C [6]: 16.8% | viability, T/C [7]: 33.2% | viability, T/C [8]: 24.4% | viability, T/C [9]: 16.5% | viability, T/C [10]: 17.5% | viability, T/C [11]: 19.1% | viability, T/C [12]: 13.9% | viability, T/C [13]: 31.1% | viability, T/C [14]: 24.8% | viability, T/C [15]: 23.2% | viability, T/C [16]: 19.6% | viability, T/C [17]: 17.1% | viability, T/C [18]: 14.4% | viability, T/C [19]: 33.2% | viability, T/C [20]: 23.4% | viability, T/C [21]: 18.2% | viability, T/C [22]: 19.1% | viability, T/C [23]: 16.6% | viability, T/C [24]: 15.3% | viability, T/C [25]: 30.2% | viability, T/C [26]: 25.6% | viability, T/C [27]: 20.2% | viability, T/C [28]: 21.2% | viability, T/C [29]: 17.5% | viability, T/C [30]: 17.1% | viability, T/C [31]: 42.9% | viability, T/C [32]: 31.6% | viability, T/C [33]: 30.1% | viability, T/C [34]: 20.6% | viability, T/C [35]: 19.8% | viability, T/C [36]: 19.2%
